Source: patent US20050180962A1, “Inactivated probiotic bacteria and methods of use thereof” (priority 2003, published 2005)

Tests used:
DSS-induced colitis = DSS-induced colitis (DSS 3.5% in drinking water, 7 days); type: in vivo, Balb/c mice; parameters: key to Histological Score: summed histological score, 0 (minimum) to 20 (maximum); conditions: for Disease Activity Score / Histological Score / MPO: mean±SEM
Experimental: To induce dextran sodium sulfate (DSS) colitis, DSS (Sigma) was given in the drinking water for 7 days. Preliminary studies were performed to identify the concentration of DSS in the drinking water required to elicit a similar disease activity score in different mouse strains.
(§1) Mice were sacrificed 7 days after the induction of colitis. All studies were performed in a blind fashion.
Probiotics, including live probiotics, irradiated probiotics, and heat killed probiotics, were intragastrically (i.g.) given starting 10 days prior to the induction of colitis and for 7 days thereafter. In preliminary studies, mice were treated daily by i.g. administration of 0.28×10^8, 2.8×10^8 or 28×10^8 CFU of irradiated probiotics per mouse per day.
(§2) In another experiment 50 μg of these DNA preparations were administered i.g. or intrarectally (i.r.) 2 hrs prior to DSS administration. In the IL-10 deficient colitis model, ten-week old mice were treated s.c. once a week with the various DNA preparations (see above), and this treatment continued for 4 weeks as described (Rachmilewitz et al. (2002) supra). The disease-activity score, histological score, and colonic myeloperoxidase (MPO) activity were determined as described (Rachmilewitz et al. (2002) supra).
A mouse model of colitis was used and assessed, as described. Rachmilewitz et al. (2002) Gastroenterology 122:1428-1441. Colitis was induced by adding dextran sodium sulfate (DSS, Sigma), 3.5% to the drinking water, and allowing them to drink ad libitum. Seven days after induction of colitis, mice were weighed and inspected for diarrhea and rectal bleeding. The mice were sacrificed, and the entire colon was dissected and its length measured and weighed. Scores were again defined as follows: Changes in body weight: No loss—0; 5 to 10%—1; […], —2; 15 to 20%, —3; >20%—4. Hemoccult: No blood, —0; positive, —2; gross blood, —4. Mucosal samples were processed for determination of MPO activity according to: Bradley (1982) J Invest Dermatol 78:206-9.
When indicated, sections from the distal colon were fixed in buffered formalin and routine 5 μm sections were prepared and stained with hematoxylin and eosin. Stained sections were examined blindly and scored. The scoring system took into account the depth of the ulcer, the extent of the ulcer, presence of inflammation, extent of inflammation, and location of fibrosis. Minimal score was 0 and maximal score was 20. Scoring was as follows for depth of the ulcer: 0=no ulcer; 1—mucosal involvement; 2—mucosal+submucosal involvement; 3=penetration of muscularis propria; 4=full thickness involvement. Scoring was as follows for extent of the ulcer: 0=no ulcer; 1=punctate; 2=minimal; 3=moderate; 4=widespread. Scoring was as follows for presence of inflammation: 0=none; 1=minimal; 2=mild; 3=moderate; 4=severe. Scoring was as follows for extent of inflammation: 0=none; 1=mucosal; 2=mucosal+submucosal involvement; 3=mucosal+submucosal+muscle penetration; 4=full thickness involvement. Scoring was as follows for location of fibrosis: 0=none; 1=mucosa only; 2=mucosa+submucosa; 3=including muscle layer; 4=full thickness fibrosis.
Fifty mg colonic mucosal scrapings were homogenized with a polytron (Kinematica GmbH, Krienz-Luzem, Switzerland) in ice-cold hexadecyltrimethyl ammonium bromide (0.5%) in 50 mM phosphate buffer, pH 6.0. The homogenate was sonicated for 10 seconds, freeze-thawed three times, and centrifuged for 15 minutes. An aliquot of the supernatant was taken for determination of myeloperoxidase (MPO) enzyme activity, as described (Rachmilewitz et al. (2002) supra).

TNBS-induced colitis = test: TNBS-induced colitis; type: in vivo, Balb/c mice; conditions: s.c. once 2 hours before TNBS; day 7; mean±SEM
Experimental: Trinitrobenzenesulfonic acid (TNBS) colitis was induced in 8 week old, Balb/c mice by rectal instillation of 0.5 mg/mouse of 2,4,6-trinitrobenzene sulfonic acid (Sigma) dissolved in 0.1 ml of 50% ethanol as described. Rachmilewitz et al. (2002), supra.
as §1
as §2, with “Various DNA preparations (ISS-ODN and control-ODN, 30 μg/mouse; probiotic DNA, methylated probiotic DNA, E. coli DNA and calf thymus DNA, 50 μg/mouse) and DNase treated probiotics (i.e., the amount of microorganisms that yielded 50 μg of probiotic DNA) were s.c. injected 2 hrs prior to the administration of DSS or TNBS. In another” for “In another”

[1] = test system: chronic DSS-induced colitis; test: Chronic DSS-induced colitis (treatment model); type: in vivo, Balb/c mice
Experimental: To evaluate whether probiotics are effective not only in the prevention but also in the treatment of colitis the following experiment was performed: Mice were treated for 7 days with DSS 3.5% added to the drinking water. From the 8th day until sacrifice on day 15, the concentration of DSS in the drinking water was reduced to 1.75%. During the 15 days of the experiment, 2 groups of mice were treated daily i.g. with viable or with irradiated probiotics 2.8×10^8 CFU. A third group was treated s.c. on day 8 with ISS-ODN (10 μg) and a fourth control group was treated i.g. daily with 0.2 ml of saline. […] The colon was isolated, weighed, sections were taken for histology and mucosal samples were obtained for MPO determination.

[2] = test system: spontaneous colitis in IL-10 KO mice; test: Spontaneous colitis in IL-10 KO mice; type: in vivo, IL-10 KO mice (B6); conditions: s.c. once a week for 4 weeks; mean±SEM
Experimental: as §2, with “Various DNA preparations (ISS-ODN and control-ODN, 30 μg/mouse; probiotic DNA, methylated probiotic DNA, E. coli DNA and calf thymus DNA, 50 μg/mouse) and DNase treated probiotics (i.e., the amount of microorganisms that yielded 50 μg of probiotic DNA) were s.c. injected 2 hrs prior to the administration of DSS or TNBS. In another” for “In another”

TLR9 = test: IL-12 (p40) and IL-6 secretion by macrophages (ELISA); type: cell-based, mice; conditions: TLR9 null macrophages, 24 hours post-stimulation
commensal flora = test: Effect of chloroquine on stool flora of mice; type: in vivo; conditions: 10 mg/kg s.c. daily for 7 days versus saline
Experimental: Control group was treated s.c. daily with 0.2 ml of saline. After 7 days, stool samples were collected, homogenized and cultured on blood, Maconkey, phenylethanol, chocolate, M.R.S., and anaerobic agars.

[3] = i.g., 50 μg once 2 hours before DSS
[4] = s.c. once 2 hours before DSS, ODNs 30 μg/mouse, DNAs 50 μg/mouse
[5] = i.r., 50 μg once 2 hours before DSS
[6] = DSS 3.5% 7 days then 1.75% 7 days, probiotics 2.8×10^8 CFU i.g. daily, ISS-ODN 10 μg s.c. day 8, day 15, mean±SEM

Row | Compound | Disease Activity Score (DSS-induced colitis; [3]) | Histological Score (DSS-induced colitis; [3]) | MPO (DSS-induced colitis; [3]) | Disease Activity Score (DSS-induced colitis; [4]) | Histological Score (DSS-induced colitis; [4]) | MPO (DSS-induced colitis; [4]) | Disease Activity Score (TNBS-induced colitis) | Histological Score (TNBS-induced colitis) | MPO (TNBS-induced colitis) | also measured
1 | 5′-TGACTGTG AAGGTTAGAGATGA-3 (DNA TGACTGTGAAGGTTAGAGATGA; DNA, all phosphorothioate, methylation of C not given here) [Control-ODN] | 6.7 ± 0.8 | 5.7 ± 0.3 | 1.90 ± 0.20 U/gr | 3.8 ± 0.7 | 8.0 ± 0.9 | 4.2 ± 0.8 U/gr | 1.3 ± 0.2 | 4.8 ± 1.8 | 2.00 ± 0.30 U/gr | 
2 | 5′-TGACTGTGAACGTTCGAGATGA-3′ [ISS-ODN] | 3.6 ± 0.7 | 2.8 ± 0.6 | 1.09 ± 0.10 U/gr | 0.4 ± 0.4 | 0 ± 0 | 0.9 ± 0.1 U/gr | 0.4 ± 0.3 | 0 ± 0 | 0.8 ± 0.10 U/gr | outcome of colitis (DSS-induced colitis; i.r. administration, once 2 hrs before DSS): had no effect; Disease Activity Score (DSS-induced colitis; [5]): 6.3 ± 0.7; Histological Score (DSS-induced colitis; [5]): 5.9 ± 0.7; MPO (DSS-induced colitis; [5]): 1.90 ± 0.30 U/gr; severity of DSS-induced colitis (DSS-induced colitis; intragastric or s.c. administration, once 2 hrs before DSS): inhibited the severity; Disease Activity Score [1, 6]: 1.1 ± 0.4; Histological Score [1, 6]: 6.9 ± 0.8; MPO [1, 6]: 1.25 ± 0.19 U/gr; severity of chronic DSS induced colitis ([1]; given with or after induction of colitis): equally attenuate the severity; Histological Score [2]: 1.8 ± 1.2; MPO [2]: 0.8 ± 0.10 U/gr; secretion of p40 or IL-6 (TLR9): did not induce
3 | CCN(CC)CCCC(C)Nc1ccnc2cc(Cl)ccc12 (stereo not drawn) [Chloroquine, chloroquine] |  |  |  |  |  |  |  |  |  | MPO (DSS-induced colitis; colonic MPO, probiotics 2.8×10^8 CFU i.g. daily, chloroquine 10 mg/kg s.c. daily, DSS 3.5% 7 days): 1.54 ± 0.16 U/gr; Histological Score (DSS-induced colitis; probiotics 2.8×10^8 CFU i.g. daily, chloroquine 10 mg/kg s.c. daily, DSS 3.5% 7 days): 8.0 ± 0.8; identity or quantity of bacterial strains grown from the stool (commensal flora): No significant differences
